Measured values from BindingDB's records for doi:10.1046/j.1440-1681.1999.03022.x (University of Melbourne, 1999).

These compounds were tested against T1, Promotilin (Oryctolagus cuniculus, UniProt P27114).
T1 sequence (P27114 whole entry): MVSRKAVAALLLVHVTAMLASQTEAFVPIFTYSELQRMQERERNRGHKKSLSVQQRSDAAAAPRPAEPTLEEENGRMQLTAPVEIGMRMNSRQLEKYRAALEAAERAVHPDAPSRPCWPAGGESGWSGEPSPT
`C[N+](C)(C)CCOC(N)=O` [(2-Hydroxyethyl)trimethyl ammonium chloride carbamate] was tested, and the Ki was 158 nM. With `CC[C@H](C)[C@H](NC(=O)[C@@H]1CCCN1C(=O)[C@@H](NC(=O)[C@@H](N)Cc1ccccc1)C(C)C)C(=O)N[C@@H](Cc1ccccc1)C(=O)N[C@H](C(=O)N[C@@H](Cc1ccc(O)cc1)C(=O)NCC(=O)N[C@@H](CCC(=O)O)C(=O)N[C@@H](CC(C)C)C(=O)N[C@@H](CCC(N)=O)C(=O)N[C@@H](CCCNC(=N)N)C(=O)N[C@@H](CCSC)C(=O)N[C@@H](CCC(N)=O)C(=O)N[C@@H](CCC(=O)O)C(=O)N[C@@H](CCCCN)C(=O)N[C@@H](CCC(=O)O)C(=O)N[C@@H](CCCNC(=N)N)C(=O)N[C@@H](CC(N)=O)C(=O)N[C@@H](CCCCN)C(=O)NCC(=O)N[C@@H](CCC(N)=O)C(=O)O)[C@@H](C)O` [CAS_52906-92-0] the Ki was 3.98 nM. `CC[C@H]1OC(=O)[C@H](C)[C@@H](O[C@H]2C[C@@](C)(OC)[C@@H](O)[C@H](C)O2)[C@H](C)[C@@H](O[C@H]2O[C@@H](C)C[C@@H](N(C)C)[C@@H]2O)[C@](C)(O)C[C@@H](C)C(=O)[C@H](C)[C@@H](O)[C@]1(C)O` [(3R,4S,5S,6R,7R,9R,11R,12R,13S,14R)-6-{[(2R,3S,4R,6S)-4-(dimethylamino)-3-hydroxy-6-methyloxan-2-yl]oxy}-14-ethyl-7,12,13-trihydroxy-4-{[(2R,4R,5S,6S)-5-hydroxy-4-methoxy-4,6-dimethyloxan-2-yl]oxy}-3,5,7,9,11,13-hexamethyl-1-oxacyclotetradecane-2,10-dione] gave a Ki of 1000 nM. Compound `CC[C@H]1OC(=O)[C@H](C)[C@@H](O[C@H]2C[C@@](C)(OC)[C@@H](O)[C@H](C)O2)[C@H](C)[C@@H](O[C@@H]2O[C@H](C)C[C@H](N(C)C(C)C)[C@H]2O)[C@@]2(C)CC(C)=C(O2)[C@H](C)C(=O)[C@]1(C)OC` [Mitemcinal] has a Ki of 31.6 nM.
